The results in this text go back to the pKa sets of Baltruschat and Czodrowski (2020).

Each structure is given as a SMILES string.

By pKa is commonly meant the pH at which an ionisable group is half protonated. A low value points to a stronger acid or weaker base. For the compound `CC/C=C/CC(=O)N[C@H]1C(=O)N2[C@H]1SC(C)(C)[C@H]2C(=O)O`, the pKa (acidic group) is 2.84.
Same read-out and setting: for `O=C(O)c1ccc2sc(Cn3cc[nH+]c3)cc2c1` the value was 3.9.
As for `N[C@@H]1CCCC[C@@H]1N`, the pKa (basic group) worked out at 9.84.
Under “acidic group”, `CC(C)Oc1cccc(C(=O)O)c1` returned a pKa of 4.15.
The same measure, in the same setting: for `CC(=S)Nc1ccccc1` the value was 11.6.
For `CO[C@H]1CC=C2CCN3CCC(CO)=C(CCO)[C@]23C1`, the pKa (basic group) is 8.69.
For `COc1c(C(=O)O)oc2ccccc12`, the pKa (acidic group) was 3.7.
Regarding `CCOc1ccc2nc(/C=C/C=C/c3ccccc3)cc(N)c2c1`, under “basic group”, the pKa came out at 9.5.
The same measure, in the same setting: for `CNc1cccc(C)c1` the value was 4.94; for `Nc1cccc([I+]c2ccccc2)c1`, 1.87; for `c1csc(-c2nccs2)n1`, 2.76.
The same measure, in the same setting: for `C=CCC(C)(CN(CC)CC)OC(=O)CCC` (centres undefined) the value was 8.5.
Under “acidic group”, `N#Cc1c(-c2nc3ccccc3o2)c(=O)oc2cc(O)ccc12` had a pKa of 6.07.
As to `CC(=O)c1ccc(CC(=O)O)s1`, the pKa (acidic group) was 3.8.
With `O=C(O)[C@@H]1O[C@H](Oc2ccc(Br)cc2)[C@@H](O)[C@H](O)[C@H]1O`, the pKa (acidic group) stood at 3.02.
In turn, `Cc1cc(C)c2ccc3cccnc3c2n1` showed a pKa (basic group) of 5.96.
On the same count and under the same terms, for `Nc1cccc2c1nnn2[C@@H]1C[C@@H](O)[C@H](CO)O1` the value was 1.9; for `CC(C)NNC1CC[NH+](C(C)C)CC1`, 6.3.
The compound `ONc1cc[n+](O)c2ccccc12` gave a pKa (acidic group) of 3.89.
The same measure, in the same setting: for `CCCCC(CC)C(=O)O[C@H]1O[C@@H](C(=O)O)[C@H](O)[C@@H](O)[C@@H]1O` (some centres undefined) the value was 3.08; for `O=C(O)C1CCCC1`, 4.99; for `O=[Se](O)c1ccc(-c2ccccc2)cc1`, 4.53.
Regarding `COc1ccc2c3c1O[C@H]1C(=O)CC[C@H]4[C@@H](C2)N(C)CC[C@]314`, the pKa (basic group) came out at 7.67.
Still for that read-out and setting: as for `CC(=O)n1ccnc1Cc1[nH]cc[nH+]1`, the figure is 1.93; as for `CC(C)SC(=N)c1ccccc1`, 8.04; as for `c1cncc(-c2ccco2)c1`, 4.62.
`CN(C)c1nnn[nH]1` registered a pKa (acidic group) of 5.92.
As for `COc1cc2c(cc1O)[C@H]1Cc3cc(OC)c(OC)cc3[C@H](C2)N1C`, the pKa (acidic group) was 9.8.
Still for that read-out and setting: for `COCC1=C(C(=O)O)CCC1` the value was 4.5.
Compound `OCCCCCc1ccccn1` gave a pKa (basic group) of 5.93.
On the same count and under the same terms, as for `Cc1cc(-c2ccccc2)nn2c(C[NH+](C)C)cnc12`, the figure is 3.18.
As to `OC(CBr)(Oc1ccccc1)c1ccccc1` (centres undefined), the pKa (acidic group) stood at 11.2.
`c1ncc(Cc2cnc[nH]2)[nH]1`: the pKa (basic group) is 7.63.
On the same count and under the same terms, as for `CCCNC1c2ccccc2C=Cc2ccccc21`, the figure is 8.9; as for `COc1cc(OC)c(OC)c(C(=O)N[C@H]2C[C@H]3CC[C@@H](C2)N3Cc2ccccc2)c1`, 8.84.
`CC1CCCC(C(=O)O)c2nnnn21` (centres undefined) yielded a pKa (acidic group) of 3.3.
On the same count and under the same terms, as for `CC(C)([NH3+])C(=O)O`, the figure is 2.39; as for `COc1ccc(CCC(=O)O)cc1`, 4.72; as for `Oc1[nH]c2ccccc2[nH+]1`, -1.7.
For the setting “basic group”, `CN(C)c1nc2c(o1)CCCC2` had a pKa of 6.16.
`Brc1ccc(-c2nnn[nH]2)cc1` had a pKa (acidic group) of 3.73.
Still for that read-out and setting: for `Cn1c(=O)c2[nH]c([N+](=O)[O-])nc2n(C)c1=O` the value was 3.58; for `C[Se](=O)O`, 5.19.
For `C[N-]C(=O)Oc1ccc2c(c1)[C@@]1(C)CCN(C)[C@H]1N2C`, the pKa (basic group) amounted to 12.2.
Under “acidic group”, `CCOc1ccc(C(=O)O)c(C)c1` had a pKa of 4.54.
The same measure, in the same setting: as for `N/C(=N\O)c1ncnc2nc[nH]c12`, the figure is 9.4; as for `Cc1ccc(C(=O)c2cc[nH]n2)cc1`, 12.
For `CC(C)(C)CC(=O)n1ccnc1`, the pKa (basic group) was found to be 3.8.
For the compound `[NH3+]CCCCC#CC#CCCC(=O)O`, under “acidic group”, the pKa is 4.15.
For the compound `CCC(N)C(=O)[O-]` (centres undefined), where the note is “basic group”, the pKa stood at 9.67.
The compound `C[NH+](C)CCc1c[nH]c2cccc(O)c12` gave a pKa (acidic group) of 8.47.
In turn, `O=C([O-])CN(CC(=O)[O-])Cc1cc([N+](=O)[O-])ccc1[O-]` showed a pKa (basic group) of 10.2.
`COc1cccc[n+]1O` registered a pKa (acidic group) of 1.23.
On to `N[C@H]1CC(=O)N(CCCC[C@H]([NH3+])C(=O)[O-])C1=O`, for which, under “basic group”, the pKa was determined as 6.
For the compound `Cc1ccc(Cl)cc1C(=O)O`, the pKa (acidic group) is 3.63.
`N#CCCNc1ccccc1` displayed a pKa (basic group) of 4.5.
Turning to `C[n+]1cccc2cc(S)ccc21`, the pKa (acidic group) was 4.12.
`COc1ccc2nc3ccccc3cc2c1`: the pKa (basic group) amounted to 3.82.
Turning to `COc1ccc(/C(=C\C(=O)c2ccc(S(=O)(=O)[O-])cc2)CC(=O)c2ccc(S(=O)(=O)[O-])cc2)cc1S(=O)(=O)[O-]`, where the note is “acidic group”, the pKa was 10.7.
As to `CN(C(=O)c1ccccc1)c1cccnc1`, under “basic group”, the pKa came out at 3.66.
Same read-out and setting: for `N=C(c1ccccc1)c1ccccc1O` the value was 5.
As to `Cc1csc(Cc2ccccc2)[n+]1C`, where the note is “acidic group”, the pKa stood at 10.8.
Compound `CN[C@H]1C(C)[C@@H]1NC` (some centres undefined) returned a pKa (basic group) of 9.03.
With `COc1ccc(O)c(Br)c1`, the pKa (acidic group) worked out at 8.62.
The same measure, in the same setting: for `CS(=O)(=O)c1ccc(NS(=O)(=O)C(F)(F)F)cc1` the value was 2.84.
Compound `[O-]c1ccnc([S-])[nH+]1` showed a pKa (basic group) of 7.75.
On the same count and under the same terms, as for `CCNc1ccnc([S-])n1`, the figure is 11.1.
For `Cn1c(=O)ccc2ccccc21`, the pKa (acidic group) was -0.71.
The same measure, in the same setting: for `Nc1c2ccccc2[nH+]c2cc(O)ccc12` the value was 6.63.
With `Nc1cc(N)c2ccccc2n1`, for the setting “basic group”, the pKa is 9.45.
Same read-out and setting: as for `Cc1ccnnc1`, the figure is 3.22; as for `CN1CC[C@]23c4c5ccc(O)c4O[C@H]2[C@@H](O)CC[C@H]3[C@H]1C5`, 8.94.
On the same count and under the same terms, as for `CCOc1c(C#N)cnc2ccccc12`, the figure is 3.18.
As to `O=C(O)c1ccc[n+]([O-])c1`, the pKa reads like this: (acidic group) 2.95; (basic group) 0.41.
Take `CCC1=CC(=O)C=C(CC)C1=NO`: the pKa (acidic group) was 8.34.
Turning to `COc1ccc2c3c([nH]c2c1)C(C)=NCC3`, the pKa worked out at 15.3 (acidic group) and 9.72 (basic group).
Consider `CN(C)Cc1cc(C[NH+](C)C)cc(O)c1O`, for which the pKa (basic group) stood at 7.22.
In the case of `CC(O)[C@@H]1C[NH2+][C@H](C(=O)O)[C@H]1CC(=O)O` (some centres undefined), the pKa (acidic group) came out at 2.94.
Compound `COC(=O)[C@@H]1[C@H](O)C[C@@H]2CC[C@H]1N2C` gave a pKa (basic group) of 8.85.
`CCN(CC)CCCC(C)Nc1cc(C)nc2cc(Cl)ccc12` (centres undefined) yielded a pKa (basic group) of 10.2.
As for `O=[N+]([O-])Cc1ccccc1`, the pKa (acidic group) was 6.77.
`O=C(O)c1ccsc1`: the pKa (acidic group) came to 4.03.
For the compound `C#C[C@]1(O)C[C@H](C)N(C)[C@@H]2CCCC[C@H]21`, under “basic group”, the pKa was 9.22.
On to `O=C(O)[C@H]1C[C@@H]1c1ccc([N+](=O)[O-])cc1`, for which the pKa (acidic group) was 4.45.
`Cc1ccnc(/N=C/c2ccc([N+](=O)[O-])cc2)n1` yielded a pKa (basic group) of 3.66.
The same measure, in the same setting: as for `CC1(C)[C@@H](N)[C@@H]1N`, the figure is 8.96.
Where the note is “acidic group”, `Cc1c([N+](=O)[O-])cc(Cl)c2nnn(O)c12` gave a pKa of 3.17.
In the case of `COC(=O)c1ccccc1N(C)C`, the pKa (basic group) is 5.55.
`COc1cccc(S(N)(=O)=O)c1` showed a pKa (acidic group) of 9.39.
On the same count and under the same terms, for `C[C@H]1CC[C@H](C)C1C(=O)O` the value was 4.74; for `O=C(CCl)Nc1nnc(-c2ccccc2)s1`, 6.9; for `Cc1cccc(C(=O)O)c1O`, 3.02.
Same read-out and setting: as for `O=C(O)CCCc1c[nH]c2ccccc12`, the figure is 4.82.
For the setting “basic group”, `Cc1cc(-c2ccccc2)n(-c2ccc(C(=O)O)cc2)n1` gave a pKa of 1.59.
The same measure, in the same setting: for `C#CCCCCN` the value was 10.5.
Same read-out and setting: for `OCC[NH+](CCO)Cc1nc2ccccc2[nH]1` the value was 2.15; for `c1ccc(Cn2ccnc2)cc1`, 6.66; for `CCCNCC[NH2+]CCC`, 7.53.
Take `Cc1ccc(NC(C)(C)C)cc1`: the pKa (basic group) was determined as 7.3.
Compound `O/N=C/c1ccc2c(c1)OCO2` had a pKa (acidic group) of 10.8.
`CC1=C(CC(C)NCC(O)c2ccccc2)CCC1(C)C` (centres undefined) returned a pKa (basic group) of 8.84.
For the compound `CCc1nc2cc3c(cc2[nH]1)CCCC3`, where the note is “basic group”, the pKa is 6.64.
Where the note is “acidic group”, `C=CCC1(C2C=CCCC2)C(=O)[N-]C(=S)NC1=O` (centres undefined) gave a pKa of 12.2.
`CNCCO` displayed a pKa (basic group) of 9.91.
In turn, `C[C@@]12CC(=O)N[C@]1(CCC(=O)O)C(=O)NC2=O` returned a pKa (acidic group) of 4.4.
In the case of `NC(=O)Cc1ccncc1`, for the setting “basic group”, the pKa was determined as 5.08.
In the case of `Cn1c([O-])[nH+]c2cnc([O-])nc21`, the pKa (basic group) was 8.74.
The compound `CCOC(=O)C(CC)C(C)=O` (centres undefined) showed a pKa (acidic group) of 12.7.
Regarding `Cn1ccc2ccccc2c1=O`, the pKa (basic group) is -1.8.
In the case of `CC(=O)N(C)O`, the pKa (acidic group) stood at 8.73.
Take `C[C@@H]1C[NH2+][C@@H](C)CN1`: for the setting “basic group”, the pKa turned out to be 5.29.
On the same count and under the same terms, for `OCc1c[nH]cn1` the value was 6.38.
Still for that read-out and setting: for `CN(C)CC[N-]S(=O)(=O)c1cccc2c(N(C)C)cccc12` the value was 10.9.
Compound `O=[N+]([O-])c1ccc[nH]1` yielded a pKa (acidic group) of 10.6.
In turn, `NC(=O)CCc1cccnc1` gave a pKa (basic group) of 5.21.
In the case of `Cc1cc(O)n(-c2nc(O)c(C)c(C)[nH+]2)n1`, the pKa (acidic group) turned out to be 5.5.
`Cc1cnn(C)c1C`: the pKa (basic group) came out at 3.58.
Take `O=C([O-])c1c(O)ccc2ccccc12`: the pKa (acidic group) was 10.9.
Same read-out and setting: for `[NH3+]C/C=C/C(=O)O` the value was 3.55; for `O=Cc1ccccc1C(=O)O`, 4.56.
In the case of `NC(=S)C1([NH3+])CCCCC1`, under “basic group”, the pKa was -8.08.
As to `O=[N+]([O-])c1cccc(/C=N\O)c1`, the pKa (acidic group) turned out to be 10.7.
On the same count and under the same terms, for `CN(C)C(=O)c1ncnc2nc[nH]c12` the value was 7.9.
`CCOCCn1c(N2CCC[NH+](CCCCn3cccn3)CC2)nc2ccccc21` yielded a pKa (basic group) of 4.9.
For the setting “acidic group”, `CC1(C)[C@@H]2CC[C@]1(C)C(=O)C2C(=O)O` (some centres undefined) showed a pKa of 3.76.
The compound `CN1C(=N)Cc2ccccc21` showed a pKa (basic group) of 9.6.
Regarding `CCC(=O)CC(=O)CC`, where the note is “acidic group”, the pKa was 9.82.
The same measure, in the same setting: for `C=C(C)C(=O)O` the value was 4.66.
Consider `Nc1ccc2c([N+](=O)[O-])cccc2c1`, for which the pKa (basic group) was 3.16.
`CS(=O)(=O)c1ccc(O)cc1` came in with a pKa (acidic group) of 7.83.
Still for that read-out and setting: as for `CCc1ccc(C(C)C)cc1O`, the figure is 10.6; as for `O=C(O)CCCCC1CCSS1` (centres undefined), 4.82.
